EPA's aquatic toxicity sets

Each compound was assayed on Pimephales promelas (assay: 96 h LC50 (-log10 mol/L); higher = more toxic).

Row | Structure (SMILES) | 96 h LC50 (-log10 mol/L)
1 | O=Cc1ccccc1[N+](=O)[O-] | 4.02
2 | CCOP(=O)(Cc1ccccc1)OCC | 2.83
3 | Oc1c(I)cc(I)cc1I | 5.59
4 | CC(C)C(O)C(C)C | 2.85
5 | C=CC(N)=O | 2.79
6 | Clc1cc(Cl)c(Cl)cc1Cl | 5.83
7 | Cc1ccc(N)c([N+](=O)[O-])c1 | 3.79
8 | CCOC(=O)c1ccccc1 | 4.25
9 | c1ccccc1 | 3.44
10 | Brc1nc(Br)c(Br)[nH]1 | 4.7
11 | CC(=O)CC(=O)c1ccccc1 | 5.17
12 | OCC(Cl)(Cl)Cl | 2.82
13 | CCCCOC(=O)CCCCC(=O)OCCCC | 4.85
14 | CCCCCCCCc1ccc(N)cc1 | 6.23
15 | CN(C)c1ccc(/C=C/C=O)cc1 | 4.47
16 | Nc1cccc(OCc2ccccc2)c1 | 4.34
17 | C#CC(C)(C)O | 1.41
18 | CCCCOC(=O)CCC(=O)OCCCC | 4.71
19 | Cc1cc(C)c(C#N)c(=O)[nH]1 | 2.98
20 | C=CCC#N | 2.57
21 | O=Cc1cccc([N+](=O)[O-])c1 | 4.42
22 | OCCCCl | 2.07
23 | CC(C)(O)CCc1ccccc1 | 3.39
24 | NC(=O)c1ccccc1O | 3.13
25 | O=Cc1ccc(Oc2ccccc2)cc1 | 4.63
26 | Cc1cc([N+](=O)[O-])ccc1N | 3.24

Row | Structure (SMILES) | 96 h LC50 (-log10 mol/L)
27 | ClC1=C(Cl)C2(Cl)C3C(Cl)C=CC3C1(Cl)C2(Cl)Cl (stereo not drawn) | 6.75
28 | OCc1ccoc1 | 2.29
29 | c1ccc(-c2ccc(-c3ccccc3)o2)cc1 | 6.64
30 | COc1ccc(O)cc1 | 3.11
31 | O=Cc1c(F)cccc1Cl | 4.23
32 | CNC(=O)Oc1cccc2c1OC(C)(C)C2 | 5.4
33 | O=C(Nc1cccc(Cl)c1)c1cccc([N+](=O)[O-])c1O | 6.08
34 | C#CCN(CC#C)CC#C | 2.65
35 | C=C[C@@]1(C)CC[C@H]2C(=CC[C@@H]3[C@]2(C)CCC[C@@]3(C)C(=O)O)C1 | 5.54
36 | Fc1ccc(Oc2ccc(F)cc2)cc1 | 5.26
37 | N#Cc1ccccc1C(F)(F)F | 3.61
38 | S=c1[nH]c2cc(Cl)ccc2s1 | 4.8
39 | Cc1ccccc1F | 3.75
40 | Cc1c(Cl)cc(C(C)(C)C)c(O)c1C(=O)Nc1ccc([N+](=O)[O-])cc1Cl | 7.69
41 | Nc1ccc(-c2ccc(N)c(Cl)c2)cc1Cl | 5.08
42 | CCN1C(=O)CC(=O)N(CC)C1=S | 1.65
43 | CCN(CC)c1ccc(C=O)c(O)c1 | 4.56
44 | Cc1cocn1 | 1.78
45 | ClCc1ccccc1 | 4.4
46 | CCCCO | 1.59
47 | Oc1ccccc1Cl | 4.02
48 | Cc1c([N+](=O)[O-])cc(N)cc1[N+](=O)[O-] | 4.46
49 | Nc1ccc(O)c([N+](=O)[O-])c1 | 3.63
50 | Cc1cc(Cl)ccc1OCCCC(=O)O | 4.26
51 | C1=C[C@H]2CC[C@@H]1C2 | 3.97
52 | O=C(CCl)c1ccc(Cl)cc1 | 4.21

Row | Structure (SMILES) | 96 h LC50 (-log10 mol/L)
53 | C#CC(O)CCCCC (stereo not drawn) | 5.49
54 | CN(C)C(=O)N[C@@H]1C[C@@H]2C[C@H]1[C@@H]1CCC[C@H]21 | 3.84
55 | Cc1c(N)cccc1[N+](=O)[O-] | 3.48
56 | O=C(O)C(Cl)(Cl)Cl | 1.91
57 | C=CC(=C)C | 2.95
58 | CCC(C)c1cccc(OC(=O)N(C)Sc2ccccc2)c1 (stereo not drawn) | 6.91
59 | COc1ccccc1C(N)=O | 3.1
60 | C#CC(C)(O)c1ccccc1 (stereo not drawn) | 3.11
61 | COP(=O)(O)OC | 3.85
62 | OCCOc1ccccc1 | 2.6
63 | O=C(Cl)c1ccccc1 | 3.61
64 | C=C(C)C1CC=C(C)CC1 (stereo not drawn) | 2.15
65 | C=CCCCCCCC=C | 5.68
66 | Nc1ccc(S(=O)(=O)O)cc1 | 3.24
67 | Cc1ccc(N=C=O)cc1N=C=O | 3.02
68 | CCN(CC)C1CCCCC1 | 3.86
69 | CC(=O)/C=C/C1=C(C)CCCC1(C)C | 4.58
70 | Cc1cc(C)c([N+](=O)[O-])cc1[N+](=O)[O-] | 4.39
71 | CC(Oc1cc(Cl)c(Cl)cc1Cl)C(=O)O (stereo not drawn) | 4.2
72 | CCOC(=O)CCC(=O)OCC | 3.1
73 | C=C(C)C(=O)OCC1CCCO1 (stereo not drawn) | 3.69
74 | CCCCCCCCCCCCN | 6.25
75 | C#CC(C)(O)CCC(C)C (stereo not drawn) | 3.46
76 | O=[N+]([O-])c1ccc(/C=C/c2cccc(CO)n2)o1 | 5.48
77 | CCCCOc1ccccc1 | 4.42
78 | CCOC(=O)C(F)(F)F | 1.15
